Test results: PubChem BioAssay (NCI)
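Dose response: 5 concentrations. Exposure: 48 h. Format: 96-well plates. Endpoint: linear interpolation; highest concentration if not reached. GI50 is the concentration that inhibits growth by half. TGI marks complete inhibition of growth.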

Columns and labels:
Experiment in all cases: NCI anticancer screen, dose series, 48 h
786-0 renal = system: 786-0 renal
A498 renal = system: A498 renal
CCRF-CEM leukemia = system: CCRF-CEM leukemia
HCC-2998 colon = system: HCC-2998 colon
HOP-92 NSCLC = system: HOP-92 NSCLC
IGROV1 ovarian = system: IGROV1 ovarian
KM12 colon = system: KM12 colon
M14 melanoma = system: M14 melanoma
NCI-H522 lung = system: NCI-H522 lung
RPMI-8226 leukemia = system: RPMI-8226 leukemia
SK-MEL-28 melanoma = system: SK-MEL-28 melanoma
SR leukemia = system: SR leukemia
DU-145 prostate = system: DU-145 prostate
MCF7 breast = system: MCF7 breast
MDA-MB-435 = system: MDA-MB-435
PC-3 prostate = system: PC-3 prostate
T-47D breast = system: T-47D breast

Structure (SMILES) | TGI (786-0 renal) [µM] | TGI (A498 renal) [µM] | TGI (CCRF-CEM leukemia) [µM] | TGI (HCC-2998 colon) [µM] | TGI (HOP-92 NSCLC) [µM] | TGI (IGROV1 ovarian) [µM] | TGI (KM12 colon) [µM] | TGI (M14 melanoma) [µM] | TGI (NCI-H522 lung) [µM] | TGI (RPMI-8226 leukemia) [µM] | TGI (SK-MEL-28 melanoma) [µM] | TGI (SR leukemia) [µM] | TGI (DU-145 prostate) [µM] | TGI (MCF7 breast) [µM] | TGI (MDA-MB-435) [µM] | TGI (PC-3 prostate) [µM] | TGI (T-47D breast) [µM] | GI50 (SK-MEL-28 melanoma) [µM] | GI50 (SR leukemia) [µM]
COc1cc([C@@H]2c3cc4c(cc3[C@@H](NCc3ccccc3F)C3COC(=O)[C@@H]32)OCO4)cc(OC)c1O (stereo partly drawn) | 13.8 | 19.7 | > 100 | 28.3 | 54.3 | 20.5 | 18 | 13.6 | 10.2 | 13.1 | 46.6 |  |  |  |  |  |  |  | 
CC(=O)OCC12CC(CC1OC(C)=O)c1ccccc12 (stereo not drawn) | > 100 | > 100 | > 100 | > 100 | > 100 | > 100 |  | > 100 |  | > 100 | > 100 | > 100 |  |  |  |  |  |  | 
CC1(C)CN(CC(=O)O)CC(Cc2ccc(OCC(=O)O)cc2)N(CC(=O)O)CC(C)(C)SS1 (stereo not drawn) | > 100 | > 100 |  | > 100 | > 100 | > 100 | > 100 | > 100 | > 100 | > 100 | > 100 |  | > 100 | > 100 | > 100 | > 100 |  |  | 
CC(C)N(C(=O)C12C3C4C5C3C1(C(=O)O)C5C42)C(C)C (stereo not drawn) | > 100 | > 100 | > 100 | > 100 | > 100 | > 100 | > 100 | > 100 | > 100 | > 100 | > 100 |  |  |  |  |  |  |  | 
CC(C)CC(=O)CC(C)[C@]1(CCCOCc2ccccc2)C(=O)N2CCC3(C[C@@]24CCC[C@H]41)OCCO3 (stereo partly drawn) | > 10 | > 10 | > 10 | > 10 | > 10 | > 10 | > 10 | > 10 | > 10 | > 10 |  | > 10 |  | > 10 | > 10 | > 10 |  |  | 
NCCCN(CCCCN(CCCN)Cc1ccccc1)Cc1ccccc1 | 77.5 | > 100 | > 100 | 22.7 |  | 37.1 | > 100 | > 100 | 23.9 | > 100 | > 100 |  | > 100 | 60.5 | > 100 |  | > 100 |  | 
COc1cc2c(c(OC)c1OC)-c1ccc(SC)c(=O)cc1[C@@H](NC(=O)c1cccc([N+](=O)[O-])c1)CC2 | 11.8 | 0.0479 | > 100 | 0.0497 |  | 35.6 | > 100 |  |  |  | 82.3 | 0.0732 |  |  |  |  |  | 10.5 | 0.00851
CCN(CC)CCCNc1ccc([N+](=O)[O-])c2nc3ccccc3c(N)c12 | 1.72 | 9.95 | 2.91 |  | > 10 | 2.6 | 1.7 | 2.43 |  | 8.35 | > 10 | 4.56 | > 10 | 2.24 | 2.9 | 2.25 |  |  | 
Cc1ccc(C(=O)NC2CCCCC2)cc1N=NN(C)C | > 100 |  |  | > 100 | > 100 | > 100 | > 100 | > 100 | > 100 |  | > 100 |  |  |  |  |  |  |  | 
NC(=O)N/N=C(\CC1OC(=O)c2ccccc21)c1ccc([N+](=O)[O-])cc1 (stereo not drawn) | 32 | > 100 | > 100 | 32.7 |  | 49.8 | 95.9 | > 100 |  | > 100 |  | > 100 |  |  |  |  |  |  | 
COc1ccccc1NC1Oc2cc3c(cc2C(c2cc(OC)c(OC)c(OC)c2)C1C)OCO3 (stereo not drawn) | 36.8 | > 30 | > 50.3 | 7.93 | > 22.8 | > 100 | 29.4 | > 100 | 4.82 | 21 | > 100 |  | > 100 | > 100 |  | > 100 | > 100 |  | 
O=C(O)CCC(NC(=O)c1ccc(Oc2nc3ccccc3nc2C(=O)O)cc1)C(=O)O (stereo not drawn) | > 100 | > 100 | > 100 | > 100 | > 100 | > 100 | > 100 | > 100 | > 100 | > 100 | > 100 | > 100 | > 100 |  | > 100 | > 100 | > 100 |  | 
Cc1ccc(S(=O)(=O)C2=Cc3ccccc3C2(O)c2ccccc2)cc1 (stereo not drawn) | > 10 | > 10 | 38.1 | 91.3 |  | > 100 | 37.6 | 31 | 65 | 44.7 | 31.1 | 92 | > 100 |  | 69.9 | 92.6 | > 100 |  | 
CC(=O)NC1=NC(=O)/C(=C/c2ccccc2Cl)N1C | > 100 |  | > 100 | > 100 | > 100 | > 100 | > 100 | > 100 | > 100 |  | > 100 |  | > 100 | > 100 | > 100 | > 100 |  |  | 
CC(C)C1=Cc2ccc3c(c2C(=O)C1=O)CCCC3 | 6.02 | 18.5 |  | 30.9 | 2.27 | 12.1 | 32.4 | 11.1 | 18.1 | 6.6 | 15.8 | 2.77 | 32 |  | 21.4 | 26.8 | 0.567 |  | 
N#CC(NNC(=O)Cc1ccccc1)c1ccc([N+](=O)[O-])cc1 (stereo not drawn) | > 100 |  | > 100 |  | > 100 | > 100 | > 100 | > 100 | > 100 | > 100 | > 100 | > 100 |  |  |  |  |  |  | 
CC1(O)CC2C(CC1SC1CC3C(CC1(C)O)C3(C)C)C2(C)C (stereo not drawn) | > 100 |  | 95.9 | > 100 | > 100 | > 100 | > 100 | > 100 |  | > 100 | > 100 |  |  |  |  |  |  |  | 
